Experimental data: patent publication US20250144067A1, “PERSONALIZED STARVATION THERAPY FOR CANCER” (Faeth Therapeutics, Inc., priority 2021, published 2025)
Where a name gives a salt, the structure may show the parent alone. Read-outs that look alike come from different tables or passages of the source.

Assays:
[1] = system: NCI-H292 lung cancer cells; test: FDA drug screening, complete media vs cholesterol-free media without statin (TABLE 1); assay type: cell-based, human
[2] = system: NCI-H292 lung cancer cells; test: FDA drug screening, complete media vs cholesterol-free media with simvastatin (TABLE 2); assay type: cell-based, human
[3] = Complete minus Cholesterol-free, greater than 0 enhanced anti-cancer activity, about 0 neutral, below 0 antagonists
[4] = NCI-H292 cells in cholesterol-free media without statin
[5] = NCI-H292 cells in complete media
[6] = NCI-H292 cells, FDA library drug in cholesterol-free media with simvastatin 0.04 μM
[7] = NCI-H292 cells, FDA library drug in complete media
[8] = complete media vs cholesterol-free media + simvastatin (0.04 μM), >0 enhanced anti-cancer activity, about 0 neutral, <0 antagonist
[9] = NCI-H292 cells, cholesterol-free media without statin
[10] = complete vs cholesterol-free media, greater than 0 enhanced anti-cancer activity, about 0 neutral, below 0 antagonists
[11] = NCI-H292 cells, FDA drug library screen, cholesterol-free media with simvastatin 0.04 μM
[12] = NCI-H292 cells, FDA drug library screen, complete media
[13] = NCI-H292 cells, cholesterol-free media without statin, FDA drug library screen
[14] = NCI-H292 cells, complete media, FDA drug library screen
[15] = complete vs cholesterol-free media, >0 enhanced anti-cancer activity, about 0 neutral, <0 antagonist
[16] = NCI-H292 cells, drug in cholesterol-free media with simvastatin 0.04 μM
[17] = NCI-H292 cells, drug in complete media
[18] = Complete minus Cholesterol-free, […]
[19] = complete media minus cholesterol-free media + simvastatin, […]
[20] = Complete minus Cholesterol-free, greater than 0 enhanced anti-cancer activity, about 0 neutral, below 0 antagonist
[21] = NCI-H292 cells, FDA drug library screen, cholesterol-free media without statin
[22] = NCI-H292 cells, cholesterol-free media with simvastatin 0.04 μM, cell growth value in FDA drug screen
[23] = NCI-H292 cells, complete media, cell growth value in FDA drug screen
[24] = complete media minus cholesterol-free media + simvastatin, >0 enhanced anti-cancer activity, about 0 neutral, <0 antagonist
[25] = Complete minus Cholesterol-free, >0 enhanced anti-cancer activity, about 0 neutral, <0 antagonist
[26] = NCI-H292 cells, cholesterol-free media with simvastatin 0.04 μM, FDA drug library screen (TABLE 2)
[27] = NCI-H292 cells, complete media, FDA drug library screen (TABLE 2)
[28] = complete media minus cholesterol-free media + simvastatin (0.04 μM), >0 enhanced anti-cancer activity, about 0 neutral, <0 antagonist

## CNC(=C[N+](=O)[O-])NCCSCc1ccc(CN(C)C)o1 [Ranitidine (hydrochloride)]
[1]; [3]
  Difference: −0.55
[1]; [4]
  Cholesterol-free: 1.186
[1]; [5]
  Complete: 0.6384
[2]; [6]
  Cholesterol-free media + simvastatin (0.04 μM): 1.27
[2]; [7]
  Complete Media: 0.8219
[2]; [8]
  Difference: −0.45

## CN(C)CCCN1c2ccccc2Sc2ccc(C(F)(F)F)cc21 [Triflupromazine (hydrochloride)]
[1]
  Cholesterol-free: 0.9938
  Complete: 0.8066
  Difference: −0.19
[2]
  Cholesterol-free media + simvastatin (0.04 μM): 0.02542
  Complete Media: 1.475
  Difference: 1.45

## Cc1cnc(C(=O)O)c[n+]1[O-] [Acipimox]
[1]; [9]
  Cholesterol-free: 1.354
[1]; NCI-H292 cells, complete media
  Complete: 1.008
[1]; [10]
  Difference: −0.35
[2]; [11]
  Cholesterol-free media + simvastatin (0.04 μM): 1.352
[2]; [12]
  Complete Media: 1.26
[2]; [8]
  Difference: −0.09

## CCCCC1OC(=O)c2ccccc21 (stereo not drawn) [Butylphthalide]
[1]; [13]
  Cholesterol-free: 0.6966
[1]; [14]
  Complete: 1.343
[1]; [15]
  Difference: 0.65
[2]; [16]
  Cholesterol-free media + simvastatin (0.04 μM): 1.292
[2]; [17]
  Complete Media: 1.12
[2]; [8]
  Difference: −0.17

## CCCC(=O)OC[C@@H](OC(=O)CCC)[C@@H](OC(=O)CCC)[C@H](Cn1c2nc(=O)[nH]c(=O)c-2nc2cc(C)c(C)cc21)OC(=O)CCC [Riboflavin Tetrabutyrate]
[1]; [18]
  Difference: 0.07
[1]; [13]
  Cholesterol-free: 0.7766
[1]; [14]
  Complete: 0.8432
[2]; [11]
  Cholesterol-free media + simvastatin (0.04 μM): 1.163
[2]; [12]
  Complete Media: 1.747
[2]; [19]
  Difference: 0.58

## CC1(C)O[C@@H]2C[C@H]3[C@@H]4CCC5=CC(=O)CC[C@]5(C)[C@@]4(F)[C@@H](O)C[C@]3(C)[C@]2(C(=O)CCl)O1 [Halcinonide]
[1]; [20]
  Difference: −0.18
[1]; [21]
  Cholesterol-free: 0.895
[1]; [12]
  Complete: 0.7117
[2]; [22]
  Cholesterol-free media + simvastatin (0.04 μM): 0.5751
[2]; [23]
  Complete Media: 0.6822
[2]; [24]
  Difference: 0.11

## COc1cccc2c1C(=O)c1c(O)c3c(c(O)c1C2=O)C[C@@](O)(C(=O)CO)C[C@@H]3O[C@H]1C[C@H](N)[C@@H](O)[C@H](C)O1 [Epirubicin (hydrochloride)]
[1]; [25]
  Difference: −0.01
[1]; [13]
  Cholesterol-free: −0.006463
[1]; [14]
  Complete: −0.01887
[2]; [11]
  Cholesterol-free media + simvastatin (0.04 μM): 0.1295
[2]; [12]
  Complete Media: −0.004785
[2]; [8]
  Difference: −0.13

## CCOC(=O)n1ccn(C)c1=S [Carbimazole]
[1]; [13]
  Cholesterol-free: 1.183
[1]; [14]
  Complete: 1.469
[1]; [15]
  Difference: 0.29
[2]; [22]
  Cholesterol-free media + simvastatin (0.04 μM): 1.468
[2]; [23]
  Complete Media: 1.519
[2]; [24]
  Difference: 0.05

## CC(C)N(CCNC(=O)CN1CCCC1=O)C(C)C [Pramiracetam]
[1]; [18]
  Difference: −0.05
[1]; [13]
  Cholesterol-free: 1.059
[1]; [14]
  Complete: 1.007
[2]; NCI-H292 cells, cholesterol-free media with simvastatin 0.04 μM, […]
  Cholesterol-free media + simvastatin (0.04 μM): 0.8266
[2]; NCI-H292 cells, complete media, […]
  Complete Media: 0.938
[2]; [19]
  Difference: 0.11

## CCCCCCCCc1ccc(CCC(N)(CO)CO)cc1 [Fingolimod]
[1]; [3]
  Difference: −0.48
[1]; [4]
  Cholesterol-free: 1.481
[1]; [5]
  Complete: 0.9982
[2]; [11]
  Cholesterol-free media + simvastatin (0.04 μM): 1.233
[2]; [12]
  Complete Media: 1.097
[2]; [8]
  Difference: −0.14

## Clebopride (malate)
[1]; [25]
  Difference: −0.29
[1]; [9]
  Cholesterol-free: 0.9703
[1]; NCI-H292 cells, complete media
  Complete: 0.6807
[2]; [26]
  Cholesterol-free media + simvastatin (0.04 μM): 0.7532
[2]; [27]
  Complete Media: 0.7281
[2]; [28]
  Difference: −0.03

## Flecainide (acetate)
[1]; [13]
  Cholesterol-free: 0.7015
[1]; [14]
  Complete: 1.125
[1]; [15]
  Difference: 0.42
[2]; [11]
  Cholesterol-free media + simvastatin (0.04 μM): 1.399
[2]; [12]
  Complete Media: 2.119
[2]; [24]
  Difference: 0.72

## CSCC1CN(/N=C/c2ccc([N+](=O)[O-])o2)C(=O)O1 (stereo not drawn) [Nifuratel]
[1]; [25]
  Difference: −0.23
[1]; [9]
  Cholesterol-free: 1.253
[1]; NCI-H292 cells, complete media
  Complete: 1.019
[2]; [6]
  Cholesterol-free media + simvastatin (0.04 μM): 1.397
[2]; [7]
  Complete Media: 1.12
[2]; [8]
  Difference: −0.28

## NCCCC[C@H](N)C(=O)O [L-Lysine]
[1]; [18]
  Difference: −0.24
[1]; [9]
  Cholesterol-free: 1.096
[1]; NCI-H292 cells, complete media
  Complete: 0.8592
[2]; [6]
  Cholesterol-free media + simvastatin (0.04 μM): 1.021
[2]; [7]
  Complete Media: 0.7295
[2]; complete media vs cholesterol-free media + simvastatin (0.04 μM), […]
  Difference: −0.29

## CN(C)/N=N/c1[nH]cnc1C(N)=O [Dacarbazine]
[1]; [20]
  Difference: −0.11
[1]; [21]
  Cholesterol-free: 1.191
[1]; [12]
  Complete: 1.077
[2]; [11]
  Cholesterol-free media + simvastatin (0.04 μM): 1.089
[2]; [12]
  Complete Media: 0.9656
[2]; [8]
  Difference: −0.12

## C#C[C@]1(O)CC[C@H]2[C@@H]3CCC4=CCCC[C@@H]4[C@H]3C(=C)C[C@@]21CC [Desogestrel]
[1]; [25]
  Difference: 0.06
[1]; [13]
  Cholesterol-free: 0.9017
[1]; [14]
  Complete: 0.9645
[2]; [7]
  Complete Media: 1.022
[2]; [8]
  Difference: −0.60

## C=C[C@H]1C[N@@]2CC[C@H]1C[C@@H]2[C@@H](O)c1ccnc2ccc(OC)cc12 [Quinidine]
[1]; [14]
  Complete: 1.951
[1]; [15]
  Difference: 0.93
[2]; [7]
  Complete Media: 0.8492
[2]; [8]
  Difference: −0.29

## O=C(Cn1ccnc1[N+](=O)[O-])NCc1ccccc1 [Benznidazol]
[1]; [13]
  Cholesterol-free: 1.047
[1]; [14]
  Complete: 1.215
[1]; [15]
  Difference: 0.17
[2]; [6]
  Cholesterol-free media + simvastatin (0.04 μM): 2.104
[2]; [7]
  Complete Media: 1.636
[2]; [8]
  Difference: −0.47

## COC[C@H]1C[C@@H](c2nc(-c3ccc4c(c3)COc3cc5c(ccc6nc([C@@H]7CC[C@H](C)N7C(=O)[C@@H](NC(=O)OC)C(C)C)[nH]c65)cc3-4)c[nH]2)N(C(=O)[C@H](NC(=O)OC)c2ccccc2)C1 [Velpatasvir]
[1]; [25]
  Difference: −0.30
[1]; [9]
  Cholesterol-free: 1.014
[1]; NCI-H292 cells, complete media
  Complete: 0.7173
[2]; [22]
  Cholesterol-free media + simvastatin (0.04 μM): 0.7455
[2]; [23]
  Complete Media: 0.7768
[2]; [24]
  Difference: 0.03

## O=C(c1ccc(F)c(F)c1Nc1ccc(I)cc1F)N1CC(O)([C@@H]2CCCCN2)C1 [Cobimetinib]
[1]; [25]
  Difference: −0.06
[1]; [13]
  Cholesterol-free: 0.2958
[1]; [14]
  Complete: 0.2361
[2]; [26]
  Cholesterol-free media + simvastatin (0.04 μM): 0.5825
[2]; [27]
  Complete Media: 0.5258
[2]; [28]
  Difference: −0.06

## CCCC(=O)Nc1ccc(OCC(O)CNC(C)C)c(C(C)=O)c1 (stereo not drawn) [Acebutolol (hydrochloride)]
[1]; [3]
  Difference: −0.56
[1]; [4]
  Cholesterol-free: 1.541
[1]; [5]
  Complete: 0.9763
[2]; [11]
  Cholesterol-free media + simvastatin (0.04 μM): 1.195
[2]; [12]
  Complete Media: 1.105
[2]; [8]
  Difference: −0.09

## CN(C)C/C=C/C(=O)Nc1cc2c(Nc3ccc(F)c(Cl)c3)ncnc2cc1O[C@H]1CCOC1 [Afatinib]
[1]; [25]
  Difference: 0.00
[1]; [13]
  Cholesterol-free: 0.02665
[1]; [14]
  Complete: 0.0309
[2]; [22]
  Cholesterol-free media + simvastatin (0.04 μM): 0.1756
[2]; [23]
  Complete Media: 0.2197
[2]; [24]
  Difference: 0.04

## CC(C)(C)NC(=O)[C@@H]1C[C@@H]2CCCC[C@@H]2CN1C[C@@H](O)[C@H](Cc1ccccc1)NC(=O)[C@H](CC(N)=O)NC(=O)c1ccc2ccccc2n1 [Saquinavir]
[1]; [9]
  Cholesterol-free: 1.314
[1]; NCI-H292 cells, complete media
  Complete: 0.9252
[1]; [10]
  Difference: −0.39
[2]; [16]
  Cholesterol-free media + simvastatin (0.04 μM): 0.9867
[2]; [17]
  Complete Media: 0.801
[2]; [8]
  Difference: −0.19
